Test results taken from US10111437B2, “Substituted guanidines as fungicides” (Nippon Soda Co., Ltd., priority 2015, dated 2018).

How the values were obtained:
[1] = test system: Tomato late blight fungus (Phytophthora infestans); assay: whole plant or invertebrate; format: in vivo; conditions: foliar, 96 h, read-out: control value
[2] = test system: cucumber gray mold fungus (Botrytis cinerea); assay: Cucumber gray mold control test (foliar spray on cucumber seedlings); conditions: in Cucumis sativus, 96 h, read-out: control value
[3] = test system: Apple scab fungus (Venturia inaequalis); assay: Apple scab control test (foliar spray on apple seedlings); format: in vivo; conditions: 125 ppm active ingredient, sprayed on apple seedlings (variety Orin) before inoculation, vs untreated
Procedure: The dilution was sprayed to apple seedlings (variety “Orin”, 3 to 4 leaf stage) grown in clay pots. […] The control value was calculated by the following equation. [formula]

[4] = test system: wheat leaf rust fungus (Puccinia recondita); assay: Wheat leaf rust control test (foliar spray on wheat seedlings); format: in vivo; conditions: 240 h, 125 ppm active ingredient, sprayed on wheat seedlings (variety Norin 61) before inoculation, 10 days, vs untreated

Measured: pest or weed control at 125 ppm

CN(CCCCCCCCNC(=N)N)C(=N)NCCCOc1ccc(C(=N)N)cc1 [compound 140]
≥ 75%: all assays above

N=C(NCCCOCc1ccc(C(=N)N)cc1)NCCCOc1ccc(C(=N)N)cc1 [compound 142]
≥ 75%: all assays above

N=C(N)NCCCCCCCCNC(=N)NCCCOCc1ccc(C(=N)N)cc1 [compound 145]
≥ 75%: all assays above

N=C(NCC/C=C/c1ccc(C(=N)N)cc1)NCC/C=C/c1ccc(C(=N)N)cc1 [compound 151]
≥ 75%: all assays above

N=C(N)NCCCCCCCCNC(=N)NCCC#Cc1ccc(C(=N)N)cc1 [compound 153]
≥ 75%: all assays above

N=C(N)NCCCCCCCCNC(=N)NCCC=Cc1ccc(C(=N)N)cc1 [compound 157]
≥ 75%: all assays above

N=C(N)NCCCCCCCNC(=N)NCCC=Cc1ccc(C(=N)N)cc1 [compound 163]
≥ 75%: all assays above

N=C(N)NCCCCCCCCNC(=N)NCC#Cc1ccc(C(=N)N)cc1 [compound 165]
≥ 75%: all assays above

N=C(N)NCCCCCCCCNC(=N)NC/C=C/c1ccc(C(=N)N)cc1 [compound 167]
≥ 75%: all assays above

N=C(N)NCCCCCCCCNC(=N)NCCCc1ccc(C(=N)N)cc1 [compound 169]
≥ 75%: all assays above

N=C(N)NCCCCCCCCNC(=N)NCCCCCOc1ccc(C(=N)N)cc1 [compound 171]
≥ 75%: all assays above

N=C(N)c1ccc(OCCCn2ccn(CCCSc3ccc(C(=N)N)cc3)c2=N)cc1 [compound 173]
≥ 75%: all assays above

N=C(N)NCCCCCCCNC(=N)NCCCSc1ccc(C(=N)N)cc1 [compound 177]
≥ 75%: all assays above

N=C(N)NCCCCCCCNC(=N)NCCCOCc1ccc(C(=N)N)cc1 [compound 179]
≥ 75%: all assays above

N=C(N)NCCCCCCCCn1ccn(CCCOc2ccc(C3=NCCCN3)cc2)c1=N [compound 184]
≥ 75%: all assays above

N=C(N)NCCCCCCCNC(=N)NCCCCCOc1ccc(C(=N)N)cc1 [compound 186]
≥ 75%: all assays above

N=C(N)NCCCCCCCCNC(=N)NCCCCOc1ccc(C(=N)N)cc1 [compound 188]
≥ 75%: all assays above

N=C(N)NCCCCCCCCNC(=N)NCCCOc1ccc(C2=NCCCN2)cc1 [compound 192]
≥ 75%: all assays above

N=C(NCCCCOc1ccc(C(=N)N)cc1)NCCCCOc1ccc(C(=N)N)cn1 [compound 194]
≥ 75%: all assays above

N=C(N)NCCCCCCCCNC(=N)NCCOCc1ccc(C(=N)N)cc1 [compound 200]
≥ 75%: all assays above

N=C(N)NCCCCCCCn1ccn(CCCOc2ccc(C3=NCCCN3)cc2)c1=N [compound 206]
≥ 75%: all assays above

N=C(N)NCCCCCCCCNC(=N)NCCOCc1ccc(C2=NCCCN2)cc1 [compound 220]
≥ 75%: all assays above

N=C(N)NCCCCCCCCNC(=N)NCCCOCc1ccc(C2=NCCCN2)cc1 [compound 222]
≥ 75%: all assays above

N=C(N)NCCCCCCCNC(=N)NCCOCc1ccc(C(=N)N)cc1 [compound 228]
≥ 75%: all assays above

N=C(N)NCCCCCCCCNC(=N)NCCCOc1ccc(C(=N)N)cc1 [compound 230]
≥ 75%: all assays above

N=C(N)NCCCCCCCCCNC(=N)NCCOc1ccc(C(=N)N)cc1 [compound 234]
≥ 75%: all assays above

N=C(N)NCCCCCCCCNC(=N)NCCOc1ccc(C2=NCCCN2)cc1 [compound 240]
≥ 75%: all assays above

N=C(N)NCCCCCCCCCNC(=N)NCCOc1ccc(C2=NCCCN2)cc1 [compound 242]
≥ 75%: all assays above

N=C(N)NCCCCCCCCNC(=N)NCCCCOc1ccc(C2=NCCN2)cc1 [compound 246]
≥ 75%: all assays above

N=C(N)NCCCCCCCCNC(=N)NCCCCOc1ccc(C2=NCCCCN2)cc1 [compound 254]
≥ 75%: all assays above

CC1(C)CNC(c2ccc(OCCCCNC(=N)NCCCCCCCCNC(=N)N)cc2)=N1 [compound 256]
≥ 75%: all assays above

N=C(N)NCCCCCCCCNC(=N)N1CCC(Oc2ccc(C3=NCCCN3)cc2)CC1 [compound 264]
≥ 75%: all assays above

N=C(N)NCCCCCCCCNC(=N)NCCc1ccc(C2=NCCCN2)cc1 [compound 266]
≥ 75%: all assays above

N=C(N)NCCCCCCCCNC(=N)NCCCc1ccc(C2=NCCCN2)cn1 [compound 273]
≥ 75%: all assays above
